{"source": "patent US6407042B1", "about": "(Monsanto Technology LLC, priority 1996, dated 2002)", "key": {"[1]": {"system": "Velvetleaf (Abutilon theophrasti, ABUTH)", "assay": "Greenhouse test of herbicidal effectiveness (percent inhibition) on velvetleaf", "type": "in vivo", "description": "(§1) The herbicidal effectiveness data set forth herein report “inhibition” as a percentage following a standard procedure in the art which reflects a visual assessment of plant mortality and growth reduction by comparison with untreated plants, made by technicians specially trained to make and record such observations. In all cases, a single technician makes all assessments of percent inhibition within any one experiment or trial. Such measurements are relied upon and regularly reported by Monsanto Company in the course of its herbicide business.\n(§2) The following procedure was used for testing compositions of the Examples to determine herbicidal effectiveness, except where otherwise indicated.\n(§3) Seeds of the plant species indicated were planted in 85 mm square pots in a soil mix which was previously steam sterilized and prefertilized with a 14-14-14 NPK slow release fertilizer at a rate of 3.6 kg/m3. The pots were placed in a greenhouse with subirrigation. About one week after emergence, seedlings were thinned as needed, including removal of any unhealthy or abnormal plants. to create a uniform series of test pots.\n(§4) The plants were maintained for the duration of the test in the greenhouse where they received a minimum of 14 hours of light per day. If natural light was insufficient to achieve the daily requirement, artificial light with an intensity of approximately 475 microeinsteins was used to make up the difference. Exposure temperatures were not precisely controlled but averaged about 27° C. during the day and about 18° C. during the night. Plants were sub-irrigated throughout the test to ensure adequate soil moisture levels.\n(§5) A set of pots was left untreated as a reference against which effects of the treatments could later be evaluated.\n(§6) Application of glyphosate compositions was made by spraying with a track sprayer fitted with a 9501E nozzle calibrated to deliver a spray volume of 93 liters per hectare (l/ha) at a pressure of 166 kilopascals (kPa). After treatment, pots were returned to the greenhouse until ready for evaluation.\n(§7) Treatments were made using dilute aqueous compositions. These could be prepared as spray compositions directly from their ingredients, or by dilution with water of preformulated concentrate compositions.\n(§8) For evaluation of herbicidal effectiveness, all plants in the test were examined by a single practiced technician, who recorded percent inhibition, a visual measurement of the effectiveness of each treatment by comparison with untreated plants."}, "[2]": {"system": "Japanese millet (Echinochloa crus-galli, ECHCF)", "assay": "Greenhouse test of herbicidal effectiveness (percent inhibition) on Japanese millet", "type": "in vivo", "description": "as §1, §2, §3, §4, §5, §6, §7, §8"}, "[3]": {"system": "Prickly sida (Sida spinosa, SIDSP)", "assay": "Greenhouse test of herbicidal effectiveness (percent inhibition) on prickly sida", "type": "in vivo", "settings": "for % Inhibition SIDSP: evaluation 10 days after application", "description": "as §1, §2, §3, §4, §5, §6, §7, §8"}, "[4]": {"system": "ABUTH and ECHCF", "assay": "Greenhouse test, herbicidal effectiveness overall on both species of the Example", "type": "in vivo, Abutilon theophrasti, Echinochloa crus-galli", "settings": "post-emergence foliar spray 93 l/ha, comparison as worded in the discussion of the Example", "protocol": "The following procedure was used for testing compositions of the Examples to determine herbicidal effectiveness, except where otherwise indicated. […] The pots were placed in a greenhouse with subirrigation. About one week after emergence, seedlings were thinned as needed, including removal of any unhealthy or abnormal plants. to create a uniform series of test pots. The plants were maintained for the duration of the test in the greenhouse where they received a minimum of 14 hours of light per day. […] Exposure temperatures were not precisely controlled but averaged about 27° C. during the day and about 18° C. during the night. Plants were sub-irrigated throughout the test to ensure adequate soil moisture levels. Pots were assigned to different treatments in a fully randomized experimental design with 3 replications. A set of pots was left untreated as a reference against which effects of the treatments could later be evaluated. […] After treatment, pots were returned to the greenhouse until ready for evaluation. Treatments were made using dilute aqueous compositions. […] For evaluation of herbicidal effectiveness, all plants in the test were examined by a single practiced technician, who recorded percent inhibition, a visual measurement of the effectiveness of each treatment by comparison with untreated plants."}, "[5]": {"system": "Hemp sesbania (Sesbania exaltata, SEBEX)", "assay": "Greenhouse test of herbicidal effectiveness (percent inhibition) on hemp sesbania", "type": "in vivo", "settings": "Example 18; 21 days after application", "description": "as §2, §3\n(§9) The plants were maintained for the duration of the test in the greenhouse where they received a minimum of 14 hours of light per day. […]\nas §5\nas §6, with “evaluation. […]” for “evaluation.”\nas §8"}, "[6]": {"system": "Common lambsquarter (Chenopodium album, CHEAL)", "assay": "Greenhouse test of herbicidal effectiveness (percent inhibition) on common lambsquarter", "type": "in vivo", "settings": "Example 20; 18 days after application", "description": "as §2, §3, §9, §5\nas §6, with “evaluation. […]” for “evaluation.”\nas §8"}, "[7]": {"settings": "dicamba rate 25 g a.i./ha, evaluation 17 days after application"}, "[8]": {"settings": "dicamba rate 50 g a.i./ha, evaluation 17 days after application"}, "[9]": {"settings": "dicamba rate 100 g a.i./ha, evaluation 17 days after application"}, "[10]": {"settings": "dicamba rate 200 g a.i./ha, evaluation 17 days after application"}, "[11]": {"settings": "acifluorfen rate 25 g a.i./ha, evaluation 10 days after application"}, "[12]": {"settings": "acifluorfen rate 50 g a.i./ha, evaluation 10 days after application"}, "[13]": {"settings": "acifluorfen rate 100 g a.i./ha, evaluation 10 days after application"}, "[14]": {"settings": "acifluorfen rate 200 g a.i./ha, evaluation 10 days after application"}}, "data": [{"molecule": "C[N+](C)(C)CCCNS(=O)(=O)C(F)(F)C(F)(F)C(F)(F)C(F)(F)C(F)(F)C(F)(F)C(F)(F)C(F)(F)F.[I-]", "note": "[Fluorad FC-135, 3-(((heptadecafluorooctyl)sulfonyl)amino)-N,N,N-trimethyl-1-propaminium iodide]", "values": [{"measurement": "concentration of Fluorad FC-135 added in tank-mix to Formulation B to bring its herbicidal performance up to that of Formulation C", "setting": "[1]; Example 21, ABUTH, evaluation 20 days after application", "value": "~0.02", "unit": "%"}, {"measurement": "optimum adjuvant concentration", "setting": "[1]; Example 25, tank-mix adjuvant for glyphosate as Formulation B, ABUTH, 21 days after application", "value": 0.2, "unit": "%"}, {"measurement": "concentration of Fluorad FC-135 added in tank-mix to Formulation B to bring its herbicidal performance up to that of Formulation C", "setting": "[2]; Example 21, ECHCF, evaluation 20 days after application", "value": "approximately 0.25%"}, {"measurement": "optimum adjuvant concentration", "setting": "[2]; Example 25, tank-mix adjuvant for glyphosate as Formulation B, ECHCF, 21 days after application", "value": 0.2, "unit": "%"}, {"measurement": "concentration of Fluorad FC-135 added in tank-mix to Formulation B to bring its herbicidal performance up to that of Formulation C", "setting": "[3]; Example 21, SIDSP, evaluation 20 days after application", "value": "~0.1", "unit": "%"}]}, {"molecule": "ceteareth-30", "values": [{"measurement": "herbicidal effectiveness overall (ABUTH and ECHCF), result in words", "setting": "[4]", "value": "more effective additives for Formulation B than steareth-10"}]}, {"molecule": "O=C(O)CNCP(=O)(O)O", "note": "[glyphosate, N-phosphonomethylglycine]", "values": [{"measurement": "herbicidal activity on SEBEX, result in words", "setting": "[5]", "value": "extremely weak"}, {"measurement": "herbicidal activity on CHEAL, result in words", "setting": "[6]", "value": "very weak"}]}, {"molecule": "Steareth-20", "values": [{"measurement": "herbicidal effectiveness overall (ABUTH and ECHCF), result in words", "setting": "[4]", "value": "more effective additives for Formulation B than steareth-10"}]}, {"molecule": "COC(=O)NS(=O)(=O)c1ccc(N)cc1", "note": "[Asulam (technical)]", "values": [{"measurement": "% Inhibition ECHCF", "setting": "[2]; asulam rate 200 g a.i./ha, evaluation 14 days after application", "value": 12, "unit": "%"}]}, {"molecule": "COc1c(Cl)ccc(Cl)c1C(=O)O", "note": "[Dicamba (technical)]", "values": [{"measurement": "% Inhibition ABUTH", "setting": "[1]; [7]", "value": 47, "unit": "%"}, {"measurement": "% Inhibition ABUTH", "setting": "[1]; [8]", "value": 63, "unit": "%"}, {"measurement": "% Inhibition ABUTH", "setting": "[1]; [9]", "value": 82, "unit": "%"}, {"measurement": "% Inhibition ABUTH", "setting": "[1]; [10]", "value": 93, "unit": "%"}, {"measurement": "% Inhibition ECHCF", "setting": "[2]; [7]", "value": 0, "unit": "%"}, {"measurement": "% Inhibition ECHCF", "setting": "[2]; [8]", "value": 0, "unit": "%"}, {"measurement": "% Inhibition ECHCF", "setting": "[2]; [9]", "value": 0, "unit": "%"}, {"measurement": "% Inhibition ECHCF", "setting": "[2]; [10]", "value": 5, "unit": "%"}]}, {"molecule": "C[n+]1ccc(-c2cc[n+](C)cc2)cc1", "note": "[Paraquat dichloride]", "values": [{"measurement": "inhibition at 25 g/ha", "setting": "[1]; Abutilon theophrasti, 288 h, Table 82, paraquat rate 25 g a.i./ha, evaluation 12 days after application", "value": 50, "unit": "%"}, {"measurement": "inhibition at 50 g/ha", "setting": "[1]; Abutilon theophrasti, 288 h, Table 82, paraquat rate 50 g a.i./ha, evaluation 12 days after application", "value": 57, "unit": "%"}, {"measurement": "inhibition at 100 g/ha", "setting": "[1]; Abutilon theophrasti, 288 h, Table 82, paraquat rate 100 g a.i./ha, evaluation 12 days after application", "value": 73, "unit": "%"}, {"measurement": "inhibition at 200 g/ha", "setting": "[1]; Abutilon theophrasti, 288 h, Table 82, paraquat rate 200 g a.i./ha, evaluation 12 days after application", "value": 85, "unit": "%"}, {"measurement": "inhibition at 25 g/ha", "setting": "[2]; Echinochloa crus-galli, 288 h, Table 82, paraquat rate 25 g a.i./ha, evaluation 12 days after application", "value": 83, "unit": "%"}, {"measurement": "inhibition at 50 g/ha", "setting": "[2]; Echinochloa crus-galli, 288 h, Table 82, paraquat rate 50 g a.i./ha, evaluation 12 days after application", "value": 78, "unit": "%"}, {"measurement": "inhibition at 100 g/ha", "setting": "[2]; Echinochloa crus-galli, 288 h, Table 82, paraquat rate 100 g a.i./ha, evaluation 12 days after application", "value": 84, "unit": "%"}, {"measurement": "inhibition at 200 g/ha", "setting": "[2]; Echinochloa crus-galli, 288 h, Table 82, paraquat rate 200 g a.i./ha, evaluation 12 days after application", "value": 95, "unit": "%"}, {"measurement": "inhibition at 25 g/ha", "setting": "[3]; Sida spinosa, 288 h, Table 82, paraquat rate 25 g a.i./ha, evaluation 12 days after application", "value": 55, "unit": "%"}, {"measurement": "inhibition at 50 g/ha", "setting": "[3]; Sida spinosa, 288 h, Table 82, paraquat rate 50 g a.i./ha, evaluation 12 days after application", "value": 60, "unit": "%"}, {"measurement": "inhibition at 100 g/ha", "setting": "[3]; Sida spinosa, 288 h, Table 82, paraquat rate 100 g a.i./ha, evaluation 12 days after application", "value": 69, "unit": "%"}, {"measurement": "inhibition at 200 g/ha", "setting": "[3]; Sida spinosa, 288 h, Table 82, paraquat rate 200 g a.i./ha, evaluation 12 days after application", "value": 99, "unit": "%"}]}, {"molecule": "O=C(O)c1cc(Oc2ccc(C(F)(F)F)cc2Cl)ccc1[N+](=O)[O-]", "note": "[Acifluorfen (technical)]", "values": [{"measurement": "% Inhibition ABUTH", "setting": "[1]; [11]", "value": 20, "unit": "%"}, {"measurement": "% Inhibition ABUTH", "setting": "[1]; [12]", "value": 32, "unit": "%"}, {"measurement": "% Inhibition ABUTH", "setting": "[1]; [13]", "value": 52, "unit": "%"}, {"measurement": "% Inhibition ABUTH", "setting": "[1]; [14]", "value": 62, "unit": "%"}, {"measurement": "% Inhibition ECHCF", "setting": "[2]; [11]", "value": 2, "unit": "%"}, {"measurement": "% Inhibition ECHCF", "setting": "[2]; [12]", "value": 7, "unit": "%"}, {"measurement": "% Inhibition ECHCF", "setting": "[2]; [13]", "value": 18, "unit": "%"}, {"measurement": "% Inhibition ECHCF", "setting": "[2]; [14]", "value": 35, "unit": "%"}, {"measurement": "% Inhibition SIDSP", "setting": "[3]; acifluorfen rate 25 g a.i./ha", "value": 15, "unit": "%"}, {"measurement": "% Inhibition SIDSP", "setting": "[3]; acifluorfen rate 50 g a.i./ha", "value": 17, "unit": "%"}, {"measurement": "% Inhibition SIDSP", "setting": "[3]; acifluorfen rate 100 g a.i./ha", "value": 35, "unit": "%"}, {"measurement": "% Inhibition SIDSP", "setting": "[3]; acifluorfen rate 200 g a.i./ha", "value": 40, "unit": "%"}]}]}
